From patent publication US8697883B2, “Cyclopenta[C]pyrrole-2-carboxylate derivatives, preparation thereof and therapeutic use thereof” (Sanofi, priority 2009, dated 2014)

What was measured:
[1] = molecular target: T1, enzyme FAAH (Fatty Acid Amide Hydrolase) (Mus musculus, UniProt O08914); assay: FAAH radioenzymatic test, hydrolysis of anandamide [ethanolamine 1-3H] (protocol 1); format: biochemical; conditions: mouse brain membrane homogenate, anandamide 10 μM, 20 min preincubation at 25° C., read-out: IC50 (concentration that inhibits 50% of the control enzymatic activity of FAAH)
T1 construct: The membrane homogenates are prepared extemporaneously by homogenizing the tissues; from tissue; host or cells: mouse brain minus cerebellum, membrane/brain homogenate
T1 sequence (O08914 1-579): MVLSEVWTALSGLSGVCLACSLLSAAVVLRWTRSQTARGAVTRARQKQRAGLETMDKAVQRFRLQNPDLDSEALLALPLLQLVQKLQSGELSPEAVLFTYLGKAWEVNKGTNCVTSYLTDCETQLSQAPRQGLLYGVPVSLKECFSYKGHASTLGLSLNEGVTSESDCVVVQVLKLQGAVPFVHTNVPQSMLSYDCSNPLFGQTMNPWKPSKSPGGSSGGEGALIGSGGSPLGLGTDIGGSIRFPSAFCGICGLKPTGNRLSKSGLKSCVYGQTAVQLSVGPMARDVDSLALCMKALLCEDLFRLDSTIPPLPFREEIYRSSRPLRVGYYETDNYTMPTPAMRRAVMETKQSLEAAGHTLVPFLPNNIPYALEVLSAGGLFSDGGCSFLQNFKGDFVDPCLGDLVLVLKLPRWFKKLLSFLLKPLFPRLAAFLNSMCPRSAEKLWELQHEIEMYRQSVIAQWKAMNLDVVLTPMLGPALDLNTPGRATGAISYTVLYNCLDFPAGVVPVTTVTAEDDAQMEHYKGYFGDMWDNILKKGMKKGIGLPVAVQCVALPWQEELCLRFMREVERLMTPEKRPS
Method: (§1) The compounds of the invention underwent pharmacological tests to determine their inhibitory effect on the enzyme FAAH (Fatty Acid Amide Hydrolase).
Thus, mouse brains (minus the cerebellum) are removed and stored at −80° C. The membrane homogenates are prepared extemporaneously by homogenizing the tissues using a Precellys® machine in reaction buffer (10 mM Tris-HCl, pH=8, 150 mM NaCl and 1 mM ethylenediaminetetraacetic acid (EDTA)). The enzymatic reaction is performed in 96-well Multiscreen filtration plates in a final volume of 70 μL. Reaction buffer supplemented with fatty acid-free bovine serum albumin (BSA, 1 mg/ml) is used for the enzymatic reaction and the dilution of the compounds and of the anandamide [ethanolamine 1-^3H]. The reaction buffer containing BSA (43 μL/well), the diluted test compounds at different concentrations (7 μL/well containing 1% DMSO) and the membrane preparation (10 μL/well, i.e. 200 μg of tissue per test) are successively added to the wells. After preincubation for 20 minutes of the compounds with the enzyme at 25° C., the reaction is started by adding anandamide [ethanolamine 1-^3H] (specific activity of 15-20 Ci/mmol) diluted with cold anandamide (10 μL/well, final concentration of 10 μM, 0.01 μCi per test). After incubation for 20 minutes at 25° C., the enzymatic reaction is stopped by adding a […] solution of active charcoal prepared in 1.5M NaCl buffer and 0.5 M HCl (50 μL/well). The mixture is stirred for 10 minutes and the aqueous phase containing the ethanolamine [1-^3H] is then recovered by filtration under vacuum and counted by liquid scintillation.

male OF1 mice = assay: Test of analgesia: PBQ-induced abdominal stretching; format: in vivo, mouse; conditions: 30 mg/kg p.o. at 120 minutes
Method: The in vivo activity of the compounds of the invention was evaluated in a test of analgesia.
Thus, the intraperitoneal (i.p.) administration of PBQ (phenylbenzoquinone, 2 mg/kg in 0.9% sodium chloride solution containing 5% ethanol) to male OF1 mice weighing 25 to 30 g causes abdominal stretching, on average 30 torsions or contractions within a period of 5 to 15 minutes after injection. The test compounds are administered orally (p.o.) or intraperitoneally (i.p.) suspended in Tween 80 at 0.5%, 60 minutes or 120 minutes before the administration of PBQ. Under these conditions, the compounds of the invention that are the most powerful reduce by 35% to 80% the number of stretches induced with PBQ, over a dose range of between 1 and 30 mg/kg.

[2] = molecular target: T1, enzyme FAAH (Fatty Acid Amide Hydrolase); assay: FAAH fluorescent enzymatic test, hydrolysis of AAMC (protocol 2); format: biochemical; conditions: mouse brain homogenate, AAMC 10 μM, 20 min preincubation at 25° C., 40 min at 37° C., read-out: IC50 (concentration that inhibits 50% of the control enzymatic activity of FAAH)
Method: as §1
Thus, mouse brains (minus the cerebellum) are withdrawn and stored at −80° C. The brain homogenates are prepared extemporaneously by homogenizing the tissues using a Precellys® machine in reaction buffer (10 mM Tris-HCl, pH=8, 150 mM NaCl and 1 mM ethylenediaminetetraacetic acid (EDTA)). The enzymatic reaction is performed in black polystyrene 384-well plates in a final volume of 50 μL. Reaction buffer supplemented with fatty acid-free bovine serum albumin (BSA, 1 mg/ml) is used for the enzymatic reaction, the dilution of the compounds and the dilution of the AAMC. Reaction buffer containing the BSA (25 μL/well), the diluted test compounds at different concentrations (5 μL/well containing 1% DMSO) and the membrane preparation (10 μL/well, i.e. 200 μg of tissue per test) are successively added to the wells. After preincubation for 20 minutes of the compounds with the enzyme at 25° C., the reaction is started by adding 10 μL of substrate per well (AAMC, final concentration of 10 μM). After incubation for 40 minutes at 37° C., the aminomethyl coumarin (AMC) produced is measured by fluorescent counting (Envision plate reader).

SMILES	IC50 [1] [nM]	melting point [°C]	reduction of the number of stretches induced with PBQ (male OF1 mice) [%]	IC50 [2] [nM]
CCOc1ccc2ccc(O[C@H]3C[C@@H]4CN(C(=O)OCc5nccs5)C[C@@H]4C3)cc2c1 [Compound 3, thiazol-2-ylmethyl (3aR,5s,6aS)-5-[(7-ethoxy-2-naphthyl)oxy]hexahydrocyclopenta[c]pyrrole-2(1H)-carboxylate]	3.5			
O=C(OCc1csnn1)N1C[C@H]2C[C@H](Oc3ccc(Cl)cc3)C[C@H]2C1 [Compound 7, 1,2,3-thiadiazol-4-ylmethyl (3aR,5s,6aS)-5-(4-chlorophenoxy)hexahydrocyclopenta[c]pyrrole-2(1H)-carboxylate]	89	122 to 124		
NC(=O)c1cc(COC(=O)N2C[C@H]3C[C@H](Oc4ccc(Cl)cc4)C[C@H]3C2)on1 [Compound 12, (3-carbamoylisoxazol-5-yl)methyl (3aR,5s,6aS)-5-(4-chlorophenoxy)hexahydrocyclopenta[c]pyrrole-2(1H)-carboxylate]	19			
CCOc1ccc2ccc(OC3CC4CN(C(=O)OCc5nc(C(=O)NC)cs5)CC4C3)cc2c1 [Compound 23, [4-(methylcarbamoyl)thiazol-2-yl]methyl (3aR,5s,6aS)-5-[(7-ethoxy-2-naphthyl)oxy]hexahydrocyclopenta[c]pyrrole-2(1H)-carboxylate]	34	149 to 151		
CCOc1ccc2ccc(O[C@H]3C[C@@H]4CN(C(=O)OCc5cc(C(N)=O)no5)C[C@@H]4C3)cc2c1 [Compound 24, (3-carbamoylisoxazol-5-yl)methyl (3aR,5s,6aS)-5-[(7-ethoxy-2-naphthyl)oxy]hexahydrocyclopenta[c]pyrrole-2(1H)-carboxylate]			50	
CNC(=O)c1cc(COC(=O)N2C[C@H]3C[C@H](Oc4ccc(Cl)c5ccccc45)C[C@H]3C2)on1 [Compound 28, [3-(methylcarbamoyl)isoxazol-5-yl]methyl (3aR,5s,6aS)-5-[(4-chloro-1-naphthyl)oxy]hexahydrocyclopenta[c]pyrrole-2(1H)-carboxylate]	12	131 to 133		
NC(=O)c1cc(COC(=O)N2C[C@H]3C[C@H](Oc4ccc(Cl)c(F)c4)C[C@H]3C2)on1 [Compound 34, (3-carbamoylisoxazol-5-yl)methyl (3aR,5s,6aS)-5-(4-chloro-3-fluorophenoxy)hexahydrocyclopenta[c]pyrrole-2(1H)-carboxylate]	3.2	100 to 102		
CNC(=O)c1cc(COC(=O)N2C[C@H]3C[C@H](Oc4ccc(Cl)c(F)c4)C[C@H]3C2)on1 [Compound 35, [3-(methylcarbamoyl)isoxazol-5-yl]methyl (3aR,5s,6aS)-5-(4-chloro-3-fluorophenoxy)hexahydrocyclopenta[c]pyrrole-2(1H)-carboxylate]			50	
CN(C)C(=O)c1cc(COC(=O)N2C[C@H]3C[C@H](Oc4ccc(F)cc4)C[C@H]3C2)on1 [Compound 44, (3-dimethylcarbamoylisoxazol-5-yl)methyl (3aR,5s,6aS)-5-(4-fluorophenoxy)hexahydrocyclopenta[c]pyrrole-2(1H)-carboxylate]				7.4
CNC(=O)c1cc(COC(=O)N2C[C@H]3C[C@H](Oc4ccc(-c5ccc(F)cc5)cc4)C[C@H]3C2)on1 [Compound 45, (3-methylcarbamoylisoxazol-5-yl)methyl (3aR,5s,6aS)-5-[(4′-fluorobiphenyl-4-yl)oxy]hexahydrocyclopenta[c]-pyrrole-2(1H)-carboxylate]		154 to 156		0.47
